Laboratory results from patent US12427149B2, “Methods and compositions for the prevention and treatment of hearing loss” (Ting Therapeutics, Inc., priority 2019, dated 2025).
Read-outs that look alike come from different tables or passages of the source.

Legend:
[1] = system: HEI-OC1 cells; experiment: Protection against cisplatin-induced Caspase-3/7 activity in HEI-OC1 cells (Caspase-Glo 3/7); format: cell-based, mouse; conditions: for IC50: Mus musculus, HEI-OC1; for protection against cisplatin-induced cell death in HEI-OC1 (in words): kinase inhibitor library screen
Description: A screen of a library composed of 75 kinase inhibitors was conducted to identify inhibitors that protect against cisplatin-induced hair cell loss.

[2] = system: mouse cochlear explants; experiment: tissue or blood; conditions: for IC50: Mus musculus; for protection against cisplatin-induced hair cell loss/death in mouse cochlear explants (in words): cisplatin 150 μM
Description: Dab alone or Dab added 1 h before cisplatin (150 μM) to P3 FVB cochlear explants for 24 h.
Now referring to FIG. 9, testing of a B-Raf/MEK1/2 inhibitor combination in mouse cochlear explant cultures. Compounds alone or combination of the compounds were added 1 h before cisplatin (150 μM) to P3 FVB cochlear explants for 24 h, and number of outer hair cells per 160 μm of middle turn regions of the cochlea were counted by phalloidin staining, mean±SEM, P=*<0.05, P=***<0.001, compared to cisplatin alone by unpaired two-tailed Student's t-test.
Methods of using a zebrafish model system to evaluate small molecules capable of decreasing, inhibiting or preventing sensory hair cell damage or death are provided. Zebrafish are an advantageous animal model system for studying causes and prevention of hearing loss in comparison to mammalian animal model systems. The relative inaccessibility of hair cells in mammalian organisms limits their use as a high throughput model for identifying compounds that would prevent toxin mediated and other forms of hair cell death from occurring. The lateral line neuromast hair cells of zebrafish (Danio rerio) are structurally and functionally similar to mammalian sensory hair cells. […] Compounds alone or compounds added 1 h before cisplatin (150 μM) to P3 FVB cochlear explants for 24 h, and number of outer hair cells per 160 μm of middle turn regions of the cochlea were counted by phalloidin staining, mean±SEM, P=*<0.05, P=**<0.005, ***P<0.0005 compared to cisplatin alone by unpaired two-tailed Student's t-test.
Compounds alone (purple bar) or combination of the compounds were added 1 h before cisplatin (150 μM) to P3 FVB cochlear explants for 24 hrs, and number of outer hair cells per 160 μm of middle turn regions of the cochlea were counted by phalloidin staining, mean±SEM, P=*<0.05, P=**<0.005, compared to cisplatin alone by unpaired two-tailed Student's t-test.

[3] = system: B-RAF, ERK and MEK; experiment: Western blots of cisplatin activated B-Raf signaling cascade in HEI-OC1 cells; format: cell-based, mouse; conditions: 50 μM cisplatin, 1 hour; dose dependent
From the text: Western blots show representative changes of each signaling molecule upon cisplatin and Dab treatment at specific doses (5B) and times (5A).

[4] = system: zebrafish lateral line neuromast hair cells; experiment: Protection of zebrafish lateral line neuromast hair cells in vivo against cisplatin; design: species or system zebrafish (Danio rerio)
Description: Lateral line neuromasts of zebrafish were stained and number of hair cells per neuromast were counted. Cisplatin (CP): 400 μM. *, **, and ***: P<0.05, 0.01, and 0.001 compared to CP alone.
Protection of zebrafish lateral line neuromast hair cells in vivo. […] After the treatment, animals were transferred to fresh fish water to recover for 1 hour and then fixed and immunostained for GFP and otoferlin. Quantification of the number of hair cells per neuromast after the different treatments represented as mean+/−SEM. Student's t test was performed, *p<0.05, **p<0.01, ***p<0.001, compared versus CP 400 μM. Neuromasts inspected: SO3 (supraorbital line neuromast) and O1-2 (otic line neuromasts) from at least 3 different animals.

[5] = system: HEI-OC1 cells; conditions: CELLTITER-GLO
[6] = Table 1, read-out: HEI-OC1 cell line IC50
[7] = read-out: Mouse cochlear explant IC50
[8] = read-out: IC50, protection against cisplatin-induced hair cell loss in mouse cochlear explants

CC1(COc2ccc3c(c2)ncn3-c2ccc3cccc(N4CCC(N)CC4)c3n2)COC1 [Crenolanib]
IC50 [1, 6]: 2400 nM
protection against cisplatin-induced cell death in HEI-OC1 (in words) [1]: potently protected
IC50 [2, 7]: 350 nM
protection against cisplatin-induced hair cell loss/death in mouse cochlear explants (in words) ([2]; listed as CRENOLANIB): potently protected
protection against cisplatin-induced hair cell loss/death in mouse cochlear explants (in words) ([2]; listed as crenolanib): protected

CC(C)(C)c1nc(-c2cccc(NS(=O)(=O)c3c(F)cccc3F)c2F)c(-c2ccnc(N)n2)s1 [Dabrafenib]
effect on cisplatin-mediated activation of B-RAF, ERK and MEK (in words) [3]: mitigates
IC50 [1, 6]: 13500 nM
protection against cisplatin-induced cell death in HEI-OC1 (in words) [1]: potently protected
Zebrafish cisplatin protection at concentration ([4]; FIG. 11A): 0.100 µM
Zebrafish protection ([4]; Table 1, protective concentration, cisplatin 400 μM): 0.100 µM
LD50 in mouse cochlear explants ([2]; FVB, mouse, 24 h): 13.47 µM
IC50 [2, 8]: 30 nM
IC50 [2, 7]: 30 nM
protection against cisplatin-induced hair cell loss/death in mouse cochlear explants (in words) [2]: potently protected

FC(F)(F)c1ccc(/C=C/c2nc(COc3ccc(CCCCn4ccnn4)cc3)co2)cc1 [Mubritinib]
LD50 in HEI-OC1 cells [5]: > 55 µM
IC50 [1, 6]: 39 nM
IC50 ([1]; read-out: IC50, protection against cisplatin-induced Caspase-3/7 activity in HEI-OC1 cells): 4 nM
protection against cisplatin-induced cell death in HEI-OC1 (in words) [1]: potently protected
LD50 in mouse cochlear explants ([2]; FVB, mouse): > 0.5 µM
IC50 [2, 8]: 2.5 nM
IC50 [2, 7]: 2 nM
protection against cisplatin-induced hair cell loss/death in mouse cochlear explants (in words) [2]: potently protected

CCCS(=O)(=O)Nc1ccc(F)c(C(=O)c2c[nH]c3ncc(Cl)cc23)c1F [PLX-4750]
IC50 [2, 8]: 200 nM
protection against cisplatin-induced hair cell loss/death in mouse cochlear explants (in words) [2]: protected

CCOc1cc2ncc(C#N)c(Nc3ccc(F)c(Cl)c3)c2cc1NC(=O)/C=C/CN(C)C [Pelitinib]
IC50 ([1]; cisplatin-Caspase-Glo 3/7, read-out: IC50, protection against cisplatin-induced Caspase-3/7 activity in HEI-OC1 cells): 600 nM
protection of outer hair cells against cisplatin-induced hair cell loss in mouse cochlear explants ([2]; 1 hour pre-incubation, N=3): 49%

Cn1c(Nc2ccc(C(F)(F)F)cc2)nc2cc(Oc3ccnc(-c4ncc(C(F)(F)F)[nH]4)c3)ccc21 [RAF-265]
LD50 in mouse cochlear explants ([2]; FVB, mouse, 24 h): greater than 3 μM
IC50 [2, 8]: 20 nM
protection against cisplatin-induced hair cell loss/death in mouse cochlear explants (in words) [2]: protected

O=C(Nc1cccc(Cl)c1)Nc1ncc(CCNc2ncnc3ccsc23)s1 [SNS-314]
IC50 [1, 6]: 7490 nM
protection against cisplatin-induced cell death in HEI-OC1 (in words) [1]: potently protected
IC50 [2, 7]: 50 nM
protection against cisplatin-induced hair cell loss/death in mouse cochlear explants (in words) [2]: protected
protection against cisplatin-induced hair cell loss/death in mouse cochlear explants (in words) ([2]; listed as SNS314): potently protected

CC(=O)Nc1cccc(-n2c(=O)n(C3CC3)c(=O)c3c(Nc4ccc(I)cc4F)n(C)c(=O)c(C)c32)c1 [Trametinib]
LD50 in mouse cochlear explants [2]: greater than 3 μM
IC50 [2, 8]: 50 nM

CCCS(=O)(=O)Nc1ccc(F)c(C(=O)c2c[nH]c3ncc(-c4ccc(Cl)cc4)cc23)c1F [Vemurafenib]
LD50 in mouse cochlear explants ([2]; FVB, mouse, 24 h): greater than 3 μM
IC50 [2, 8]: ~200 nM
